Measured values reported in ChEMBL document CHEMBL2069281, “2-Phenylamino-6-cyano-1H-benzimidazole-based isoform selective casein kinase 1 gamma (CK1γ) inhibitors” (Bioorg Med Chem Lett, 2012).

Assay: Clearance in rat at […], iv
Type: ADME, organism-based
Set-up: dose 0.58 mg/kg, route intravenous
Details: in vivo

- clearance: 108 mL/min/kg
Structure (SMILES): CC(C)(C)c1ccc(Nc2nc3ccc(C#N)cc3[nH]2)cc1
